Reference: ChEMBL document CHEMBL1201862, “PubChem BioAssay data set” (2004)
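Test compounds were applied to cells in 96-well plates for 48 hours at 5 doses. Abbreviation: GI50, concentration required for 50% inhibition of growth.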 Active and inactive are the calls of the source. Cut-off read from the data, not from the text of the source: active = GI50 up to about 1.1 µM and inactive = higher.

Columns and labels:
Assay in all cases: NCI-60 cell line screen, 48 h
TK-10 = system: TK-10
MDA-N = system: MDA-N
SN12C = system: SN12C
M14 = system: M14
T47D = system: T47D
Malme-3M = system: Malme-3M
UO-31 = system: UO-31
OVCAR-8 = system: OVCAR-8
OVCAR-4 = system: OVCAR-4
SNB-75 = system: SNB-75
NCI-H460 = system: NCI-H460
A549 = system: A549
HT-29 = system: HT-29
HCT-116 = system: HCT-116
OVCAR-5 = system: OVCAR-5
CCRF-CEM = system: CCRF-CEM
SK-OV-3 = system: SK-OV-3
UACC-257 = system: UACC-257
SR = system: SR
RPMI-8226 = system: RPMI-8226
NCI-H23 = system: NCI-H23
SK-MEL-2 = system: SK-MEL-2
MCF7 = system: MCF7
NCI/ADR-RES = system: NCI/ADR-RES
SNB-19 = system: SNB-19
K562 = system: K562
786-0 = system: 786-0
EKVX = system: EKVX
MDA-MB-435 = system: MDA-MB-435
HCC 2998 = system: HCC 2998
SW-620 = system: SW-620
A498 = system: A498
DU-145 = system: DU-145
COLO 205 = system: COLO 205
BT-549 = system: BT-549
LOX IMVI = system: LOX IMVI
SK-MEL-5 = system: SK-MEL-5
SF-539 = system: SF-539
HL-60 = system: HL-60
RXF 393 = system: RXF 393
MDA-MB-231 = system: MDA-MB-231
CAKI-1 = system: CAKI-1
PC-3 = system: PC-3
MOLT-4 = system: MOLT-4
NCI-H226 = system: NCI-H226
UACC-62 = system: UACC-62
SK-MEL-28 = system: SK-MEL-28
SF-268 = system: SF-268
U-251 = system: U-251
KM12 = system: KM12
Hs-578T = system: Hs-578T
HCT-15 = system: HCT-15
OVCAR-3 = system: OVCAR-3
SF-295 = system: SF-295
HOP-92 = system: HOP-92
NCI-H522 = system: NCI-H522
ACHN = system: ACHN
HOP-62 = system: HOP-62
IGROV-1 = system: IGROV-1

CSc1c(C#N)c(=O)[nH]c2[nH]nc(C)c12 was tested, and the GI50 (TK-10) was > 100 µM (inactive), the GI50 (MDA-N) was > 100 µM (inactive) and the GI50 (SN12C) was > 100 µM (inactive). The GI50 (M14) was > 100 µM (inactive), the GI50 (T47D) was > 100 µM (inactive) and the GI50 (Malme-3M) was > 100 µM (inactive). The GI50 (UO-31) was > 100 µM (inactive), the GI50 (OVCAR-8) was > 100 µM (inactive) and the GI50 (OVCAR-4) was > 100 µM (inactive). For the same compound, the GI50 (SNB-75) was > 100 µM (inactive), the GI50 (NCI-H460) was > 100 µM (inactive) and the GI50 (A549) was > 100 µM (inactive). For the same compound, the GI50 (HT-29) was > 100 µM (inactive), the GI50 (HCT-116) was 33.3 µM (inactive) and the GI50 (OVCAR-5) was > 100 µM (inactive). The GI50 (CCRF-CEM) was > 100 µM (inactive), the GI50 (SK-OV-3) was > 100 µM (inactive) and the GI50 (UACC-257) was > 100 µM (inactive). The GI50 (SR) was > 100 µM (inactive), the GI50 (RPMI-8226) was > 100 µM (inactive) and the GI50 (NCI-H23) was > 100 µM (inactive). For the same compound, the GI50 (SK-MEL-2) was > 100 µM (inactive), the GI50 (MCF7) was > 100 µM (inactive) and the GI50 (NCI/ADR-RES) was > 100 µM (inactive). The GI50 (SNB-19) was > 100 µM (inactive), the GI50 (K562) was > 100 µM (inactive) and the GI50 (786-0) was > 100 µM (inactive). For the same compound, the GI50 (EKVX) was > 100 µM (inactive), the GI50 (MDA-MB-435) was > 100 µM (inactive) and the GI50 (HCC 2998) was > 100 µM (inactive). For the same compound, the GI50 (SW-620) was > 100 µM (inactive), the GI50 (A498) was > 100 µM (inactive) and the GI50 (DU-145) was > 100 µM (inactive). For the same compound, the GI50 (COLO 205) was > 100 µM (inactive), the GI50 (BT-549) was > 100 µM (inactive) and the GI50 (LOX IMVI) was > 100 µM (inactive). The GI50 (SK-MEL-5) was > 100 µM (inactive), the GI50 (SF-539) was > 100 µM (inactive) and the GI50 (HL-60) was > 100 µM (inactive). The GI50 (RXF 393) was > 100 µM (inactive), the GI50 (MDA-MB-231) was > 100 µM (inactive) and the GI50 (CAKI-1) was 22.1 µM (inactive). For the same compound, the GI50 (PC-3) was > 100 µM (inactive), the GI50 (MOLT-4) was > 100 µM (inactive) and the GI50 (NCI-H226) was > 100 µM (inactive). For the same compound, the GI50 (UACC-62) was > 100 µM (inactive), the GI50 (SK-MEL-28) was > 100 µM (inactive) and the GI50 (SF-268) was > 100 µM (inactive). The GI50 (U-251) was > 100 µM (inactive), the GI50 (KM12) was > 100 µM (inactive) and the GI50 (Hs-578T) was > 100 µM (inactive). For the same compound, the GI50 (HCT-15) was greater than 100 µM and the GI50 (OVCAR-3) was > 100 µM (inactive).
With c1cc(-c2ccc(-c3ccc(-c4ccc(-c5ccncc5)o4)cc3)o2)ccn1 the GI50 (TK-10) was 17 µM (inactive), the GI50 (MDA-N) was 16.7 µM (inactive) and the GI50 (SF-295) was 15 µM (inactive). For the same compound, the GI50 (SN12C) was 22.4 µM (inactive), the GI50 (M14) was 17.7 µM (inactive) and the GI50 (T47D) was 11.4 µM (inactive). The GI50 (Malme-3M) was 19.8 µM (inactive), the GI50 (UO-31) was 21.5 µM (inactive) and the GI50 (OVCAR-8) was 16.8 µM (inactive). The GI50 (OVCAR-4) was 14.9 µM (inactive), the GI50 (SNB-75) was 18.9 µM (inactive) and the GI50 (NCI-H460) was 15.2 µM (inactive). The GI50 (A549) was 18.4 µM (inactive), the GI50 (HT-29) was 11.8 µM (inactive) and the GI50 (HCT-116) was 16.1 µM (inactive). For the same compound, the GI50 (OVCAR-5) was 24.9 µM (inactive), the GI50 (CCRF-CEM) was 5.68 µM (inactive) and the GI50 (SK-OV-3) was 21.1 µM (inactive). The GI50 (UACC-257) was 15.8 µM (inactive), the GI50 (SR) was 24.1 µM (inactive) and the GI50 (HOP-92) was 30.5 µM (inactive). For the same compound, the GI50 (NCI-H23) was 16.9 µM (inactive), the GI50 (MCF7) was 18.8 µM (inactive) and the GI50 (NCI/ADR-RES) was 31.2 µM (inactive). The GI50 (SNB-19) was 18.5 µM (inactive), the GI50 (K562) was 15.7 µM (inactive) and the GI50 (786-0) was 15.9 µM (inactive). For the same compound, the GI50 (EKVX) was 22.4 µM (inactive), the GI50 (MDA-MB-435) was 15.5 µM (inactive) and the GI50 (HCC 2998) was 18.2 µM (inactive). For the same compound, the GI50 (SW-620) was 28.2 µM (inactive), the GI50 (NCI-H522) was 15.3 µM (inactive) and the GI50 (A498) was > 100 µM (inactive). For the same compound, the GI50 (ACHN) was 24.6 µM (inactive), the GI50 (DU-145) was 15 µM (inactive) and the GI50 (COLO 205) was 16.1 µM (inactive). For the same compound, the GI50 (BT-549) was 15.7 µM (inactive), the GI50 (LOX IMVI) was 21.4 µM (inactive) and the GI50 (SK-MEL-5) was 13.2 µM (inactive). The GI50 (HL-60) was 18.5 µM (inactive), the GI50 (RXF 393) was > 100 µM (inactive) and the GI50 (HOP-62) was 22.1 µM (inactive). For the same compound, the GI50 (MDA-MB-231) was 29 µM (inactive), the GI50 (IGROV-1) was 19.1 µM (inactive) and the GI50 (CAKI-1) was 21.4 µM (inactive). The GI50 (PC-3) was 18.7 µM (inactive), the GI50 (MOLT-4) was 6.34 µM (inactive) and the GI50 (NCI-H226) was 27.4 µM (inactive). For the same compound, the GI50 (UACC-62) was 17.9 µM (inactive), the GI50 (SK-MEL-28) was 21.2 µM (inactive) and the GI50 (SF-268) was 20.7 µM (inactive). The GI50 (U-251) was 17.5 µM (inactive), the GI50 (KM12) was 15.3 µM (inactive) and the GI50 (Hs-578T) was 64.1 µM (inactive). The GI50 (HCT-15) was 15.1 µM and the GI50 (OVCAR-3) was 23 µM (inactive).
